Active and inactive are the calls of the source. The rule behind the calls is not given here.
Experiments:
[1] = biological target: T1, Histone deacetylase (Homo sapiens) (UniProt Q13547+O15379+Q9UBN7+Q92769+Q9UQL6+Q8WUI4+Q9BY41+Q96DB2+P56524+Q9UKV0+Q969S8); assay: Inhibition of HDAC in human HT-29 cells assessed as increase in acetyl alpha-tubulin level at 2.5 to 5 uM incubated for 48 hrs by Western blot analysis; type: cell-based; conditions: dose 2.5-5 µM
[2] = Toxicity in zebrafish embryo assessed as yolk sac edema at 1 to 5 uM measured after 96 hrs post fertilization by microscopic analysis; design: species or system Danio rerio; conditions: in vivo, dose 1-5 µM
HT-29 [3] = assay: cells; type: functional, cell-based; conditions: Homo sapiens, HT-29, 48 h
Description: Anticancer activity against human HT-29 cells assessed as inhibition of cell growth measured for 48 hrs by MTT assay

HT-29 [4] = assay: Inhibition of cell migration in human HT-29 cells at 1.25 uM measured immediately by wound healing assay (reference value: 100%); values are per cent of control
HT-29 [5] = assay: Anticancer activity against human HT-29 cells assessed as viable cells by measuring green fluorescence intensity measured for 48 hrs by Calcein AM staining based fluorescent microscopic analysis; type: functional, cell-based; conditions: dose 1-20 µM
[6] = Toxicity in zebrafish embryo assessed as hatching rate at 1 to 5 uM measured after 72 hrs post fertilization by microscopic analysis; design: species or system Danio rerio; conditions: in vivo, dose 1-5 µM
HT-29 [7] = assay: Inhibition of cell migration in human HT-29 cells assessed as upregulation of E-cadherin level at 2.5 to 5 uM incubated for 48 hrs by Western blot analysis; type: functional, cell-based; conditions: dose 2.5-5 µM
[8] = Toxicity in zebrafish embryo assessed as survival rate at 1 to 5 uM measured after 72 hrs post fertilization; design: species or system Danio rerio; conditions: in vivo, dose 1-5 µM
[9] = biological target: T1, Histone deacetylase (Homo sapiens); assay: Inhibition of HDAC in human A549 cells incubated for 48 hrs by Western blot analysis; type: cell-based; conditions: dose 0.1-10 µM
A549 [10] = assay: Anticancer activity against human A549 cells cultured as 3D spheroids assessed as suppression of cell growth at 10 uM incubated for 48 hrs by celltiter-glo luminescent assay; type: functional, cell-based
A549 [11] = assay: Inhibition of cell migration in human A549 cells at 2.5 uM measured at 48 hrs by wound healing assay (reference value: 42.3%); values are per cent of control; conditions: A549, 48 h
A549 [12] = assay: Induction of apoptosis in human A549 cells assessed as increase in PARP level at 5 to 10 uM incubated for 48 hrs by Western blot analysis; type: functional, cell-based; conditions: dose 5-10 µM
HT-29 [13] = assay: Inhibition of colony formation in human HT-29 cells at 125 to 250 nM measured for 10 days by crystal violet staining based analysis; type: functional, cell-based; conditions: dose 125-250 nM, time 10.0 day
NCI-H1299 = assay: Anticancer activity against human NCI-H1299 cells assessed as reduction in cell viability at 10 to 40 uM incubated for 48 hrs by MTT assay; type: functional, cell-based; conditions: dose 10-40 µM
[14] = Toxicity in zebrafish embryo assessed as formation of scoliosis at 1 to 5 uM measured after 96 hrs post fertilization by microscopic analysis; design: species or system Danio rerio; conditions: in vivo, dose 1-5 µM
A549 [15] = assay: Induction of cell cycle arrest in human A549 cells assessed as accumulation at sub G1 at 5 to 10 uM incubated for 24 to 48 hrs by PI-staining based flow cytometric analysis; type: functional; conditions: dose 5-10 µM, time 24-48 hrs
A549 [16] = assay: Anticancer activity against human A549 cells assessed as suppression of cell viability at 10 uM incubated for 48 hrs by MTT assay; type: functional, cell-based
A549 [17] = assay: Induction of cell cycle arrest in human A549 cells assessed as effect on cyclin B1 level at 5 to 10 uM incubated for 48 hrs by Western blot analysis; type: functional, cell-based; conditions: dose 5-10 µM
A549 [18] = assay: Inhibition of cell migration in human A549 cells at 2.5 uM measured immediately by wound healing assay (reference value: 100%); values are per cent of control
A549 [19] = assay: Anticancer activity against human A549 cells assessed as viable cells by measuring green fluorescence intensity measured for 48 hrs by Calcein AM staining based fluorescent microscopic analysis; type: functional, cell-based; conditions: dose 1-20 µM
A549 [20] = assay: Induction of apoptosis in human A549 cells assessed as increase in caspase 3 level at 5 to 10 uM incubated for 48 hrs by Western blot analysis; type: functional, cell-based; conditions: dose 5-10 µM
HT-29 [21] = assay: Inhibition of cell migration in human HT-29 cells assessed as downregulation of vimentin level at 2.5 to 5 uM incubated for 48 hrs by Western blot analysis; type: functional, cell-based; conditions: dose 2.5-5 µM
A549 [22] = assay: Inhibition of cell migration in human A549 cells at 2.5 uM measured at 24 hrs by wound healing assay (reference value: 68.4%); values are per cent of control; conditions: A549, 24 h
HT-29 [23] = assay: Anticancer activity against human HT-29 cells assessed as suppression of cell viability at 10 uM incubated for 48 hrs by MTT assay; type: functional, cell-based
HT-29 [24] = assay: Anticancer activity against human HT-29 cells cultured as 3D spheroids assessed as suppression of cell growth at 10 uM incubated for 48 hrs by celltiter-glo luminescent assay; type: functional, cell-based
A549 [25] = assay: Inhibition of colony formation in human A549 cells at 250 to 500 nM measured for 10 days by crystal violet staining based analysis; type: functional, cell-based; conditions: dose 250-500 nM, time 10.0 day
[26] = Toxicity in zebrafish embryo assessed as effect on body length at 1 to 5 uM measured after 96 hrs post fertilization by microscopic analysis; design: species or system Danio rerio; conditions: in vivo, dose 1-5 µM
HT-29 [27] = assay: Inhibition of cell migration in human HT-29 cells assessed as downregulation of slug level at 2.5 to 5 uM incubated for 48 hrs by Western blot analysis; type: functional, cell-based; conditions: dose 2.5-5 µM
[28] = biological target: T1, Histone deacetylase (Homo sapiens); assay: Inhibition of HDAC in human HT-29 cells incubated for 48 hrs by Western blot analysis; type: cell-based; conditions: dose 0.1-10 µM
HT-29 [29] = assay: Inhibition of cell migration in human HT-29 cells at 1.25 uM measured at 48 hrs by wound healing assay (reference value: 73.2%); type: functional
A549 [30] = assay: Induction of apoptosis in human A549 cells assessed as upregulation of p53 expression at 5 to 10 uM incubated for 48 hrs by Western blot analysis; type: functional, cell-based; conditions: dose 5-10 µM
[31] = biological target: T1, Histone deacetylase (Homo sapiens); assay: Inhibition of HDAC in human HT-29 cells assessed as increase in histone acetylation level at 2.5 to 5 uM incubated for 48 hrs by Western blot analysis; type: cell-based; conditions: dose 2.5-5 µM
A549 [32] = assay: cells; type: functional, cell-based; conditions: Homo sapiens, A549, 48 h
Description: Anticancer activity against human A549 cells assessed as inhibition of cell growth measured for 48 hrs by MTT assay

HT-29 [33] = assay: Inhibition of cell migration in human HT-29 cells at 1.25 uM measured at 24 hrs by wound healing assay (reference value: 85.7%); values are per cent of control; conditions: HT-29, 24 h
A549 [34] = assay: Induction of cell cycle arrest in human A549 cells assessed as effect on p21 level at 5 to 10 uM incubated for 48 hrs by Western blot analysis; type: functional, cell-based; conditions: dose 5-10 µM

Nc1ccccc1NC(=O)c1ccc(Cc2cn(S(=O)(=O)c3ccccc3)c3ccccc23)cc1
inhibition [1]: Active | Activity [2]: Non-Toxic | IC50 (HT-29 [3]): 1.92 µM | wound area remaining at 1.25 µM (HT-29 [4]): 100% | Activity (HT-29 [5]): Dose-Dependent Effect | Activity [6]: 100% | inhibition (HT-29 [7]): Active | survival at 72 h, up to 5 µM [8]: ~100% | inhibition [9]: Active | Activity (A549 [10]): Active | wound area remaining at 2.5 µM (A549 [11]): 53.6% | Activity (A549 [12]): Active | inhibition (HT-29 [13]): Active | Activity (NCI-H1299): Active | Activity [14]: Non-Toxic | Activity (A549 [15]): Active | Activity (A549 [16]): Active | Activity (A549 [17]): Active | wound area remaining at 2.5 µM (A549 [18]): 100% | Activity (A549 [19]): Dose-Dependent Effect | Activity (A549 [20]): Active | inhibition (HT-29 [21]): Active | wound area remaining at 2.5 µM (A549 [22]): 75.8% | Activity (HT-29 [23]): Active | Activity (HT-29 [24]): Active | inhibition (A549 [25]): Active | Activity [26]: Non-Toxic | inhibition (HT-29 [27]): Active | inhibition [28]: Active | inhibition at 1.25 µM (HT-29 [29]): 82.1% | Activity (A549 [30]): Active | inhibition [31]: Active | IC50 (A549 [32]): 4.86 µM | wound area remaining at 1.25 µM (HT-29 [33]): 89.6% | Activity (A549 [34]): Active

Source: ChEMBL document CHEMBL5550180, “Enhancing anti-cancer capacity: Novel class I/II HDAC inhibitors modulate EMT, cell cycle, and apoptosis pathways” (Bioorg Med Chem, 2024)
